{"source": "patent US9453014B2", "about": "“Cyclic amide derivatives as inhibitors of 11-β-hydroxysteroid dehydrogenase and uses thereof” (CONNEXIOS LIFE SCIENCES PVT. LTD., priority 2011, dated 2016)", "target": "T1, human full length HSD11 β 1 (Homo sapiens, UniProt P28845)", "T1 construct": "transient expression of human full length HSD11 β 1 expression vector; host or cells: CHO cells (transient transfection)", "T1 sequence (P28845 whole entry)": "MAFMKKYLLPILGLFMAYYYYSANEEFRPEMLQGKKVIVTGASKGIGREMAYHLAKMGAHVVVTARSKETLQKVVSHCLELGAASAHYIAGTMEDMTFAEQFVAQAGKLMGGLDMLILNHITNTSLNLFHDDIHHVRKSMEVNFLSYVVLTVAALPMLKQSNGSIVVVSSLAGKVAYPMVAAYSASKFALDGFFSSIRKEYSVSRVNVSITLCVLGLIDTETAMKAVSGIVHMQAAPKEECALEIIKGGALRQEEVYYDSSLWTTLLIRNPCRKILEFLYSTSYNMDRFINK", "test": "In Vitro HSD11β1 Inhibition Assay", "assay_type": "cell-based", "description": "In Vitro HSD11β1 Inhibition Assay:\nCHO cells were maintained in Dulbecco's modified Eagle's medium/nutrient mixture F-12 containing 5% fetal bovine serum (v/v) and 2 mM glutamine. Cells were cultured at 37° C. with 5% CO2. For transient expression of human full length HSD11 β 1 expression vector (OriGene Technologies), cells were seeded at a density of 2×10^5 cells/well in a 6-well plate. Transfection was done using Turbofectin8 reagent (OriGene Technologies), according to the protocol provided with the reagent. After 24 hours post-transfection, cells were trypsinized and pooled together before they were re-seeding to 96-well plate at a density of 40000 cells/well. 24 hours after re-seeding, cells were incubated with 200 nM cortisone+500 uM NADPH (or along with small molecule inhibitors) overnight. The enzymatic activity or inhibition of enzyme activity was measured by estimating the conversion of cortisone to cortisol by LC/MS-MS method. The IC50 in nM was calculated from an 8 point log scale of concentration versus inhibition.", "key": {"[1]": {"conditions": "CHO cells transiently expressing human HSD11β1, 200 nM cortisone+500 uM NADPH overnight, cortisone to cortisol by LC/MS-MS, read-out: 11βHSD1 (IC50)"}}, "note": "Where two headings read alike, the source gives them in different places."}
{"smiles": "O=C(CCc1nc2ccccc2s1)N1CCC2CCCCC21", "note": "(stereo not shown) [Example 81, 3-(1,3-benzothiazol-2-yl)-1-(octahydro-1H-indol-1-yl)propan-1-one]", "values": [{"measurement": "IC50", "setting": "[1]", "value": "< 100", "unit": "nM"}]}
{"smiles": "CC(CC(=O)N1CCCC2C(C(=O)O)CCCC21)c1cn(C)c2cccc(C3CC3)c12", "note": "(single isomer, unassigned) [Compound 213, 1-[3-(4-cyclopropyl-1-methyl-1H-indol-3-yl)butanoyl]decahydroquinoline-5-carboxylic acid]", "values": [{"measurement": "IC50", "setting": "[1]", "value": "> 250", "unit": "nM"}]}
{"smiles": "Cc1cccc2[nH]cc(CCC(=O)N3CCCC4CCCCC43)c12", "note": "(stereo not shown) [Compound 20, 3-(4-methyl-1H-indol-3-yl)-1-(octahydroquinolin-1(2H)-yl)propan-1-one]", "values": [{"measurement": "IC50", "setting": "[1]", "value": "< 100", "unit": "nM"}]}
{"smiles": "O=C(CCc1cn(S(=O)(=O)c2ccccc2)c2ccccc12)N1CCCC2CCCCC21", "note": "(stereo not shown) [Compound 51, 1-(octahydroquinolin-1(2H)-yl)-3-[1-(phenylsulfonyl)-1H-indol-3-yl]propan-1-one]", "values": [{"measurement": "IC50", "setting": "[1]", "value": "> 250", "unit": "nM"}]}
{"smiles": "CC(CC(=O)N1CCCC2C(C(=O)O)CCCC21)c1c[nH]c2cccc(Cl)c12", "note": "(stereo not shown) [Compound 193, 1-[3-(4-chloro-1H-indol-3-yl)butanoyl]decahydroquinoline-5-carboxylic acid]", "values": [{"measurement": "IC50", "setting": "[1]", "value": "100 to 150", "unit": "nM"}]}
{"smiles": "O=C(O)C1CCCC2C1CCCN2C(=O)CC(O)(c1c[nH]c2ccccc12)C(F)(F)F", "note": "(stereo not shown) [Compound 265, 1-[4,4,4-trifluoro-3-hydroxy-3-(1H-Indol-3-yl)butanoyl]-decahydroquinoline-5-carboxylic acid]", "values": [{"measurement": "IC50", "setting": "[1]", "value": "> 250", "unit": "nM"}]}
{"smiles": "CC(CC(=O)N1C(C)CCC2C(C(=O)O)CCCC21)c1c[nH]c2cccc(-c3cccs3)c12", "note": "(stereo not shown) [Compound 232, 2-methyl-1-{3-[4-(thiophen-2-yl)-1H-indol-3-yl]butanoyl}decahydroquinoline-5-carboxylic acid]", "values": [{"measurement": "IC50", "setting": "[1]", "value": "150 to 200", "unit": "nM"}]}
{"smiles": "CC(C)C(CC(=O)N1CCOC2CCCCC21)c1c[nH]c2ccccc12", "note": "(stereo not shown) [Example 133, 3-(1H-indol-3-yl)-4-methyl-1-(octahydro-4H-1,4-benzoxazin-4-yl)pentan-1-one]", "values": [{"measurement": "IC50", "setting": "[1]", "value": "> 250", "unit": "nM"}]}
{"smiles": "CC(CC(=O)N1CCOC2CCCCC21)c1c[nH]c2cccc(F)c12", "note": "(single isomer, unassigned) [Example 138, 3-(4-fluoro-1H-indol-3-yl)-1-(octahydro-4H-1,4-benzoxazin-4-yl)butan-1-one]", "values": [{"measurement": "IC50", "setting": "[1]", "value": "150 to 200", "unit": "nM"}]}
{"smiles": "N#C/C(=C\\c1c[nH]c2ccccc12)C(=O)N1CCCC2CCCCC21", "note": "(stereo not shown) [Compound 31, (2E)-3-(1H-indol-3-yl)-2-(octahydroquinolin-1(2H)-ylcarbonyl)prop-2-enenitrile]", "values": [{"measurement": "IC50", "setting": "[1]", "value": "> 250", "unit": "nM"}]}
{"smiles": "Cc1cccc2[nH]cc(C(=O)CC(=O)N3CCCC4CCCCC43)c12", "note": "(stereo not shown) [Compound 30, 1-(4-methyl-1H-indol-3-yl)-3-(octahydroquinolin-1(2H)-yl)propane-1,3-dione]", "values": [{"measurement": "IC50", "setting": "11βHSD1 (IC50)", "value": "> 250", "unit": "nM"}]}
{"smiles": "CC(CC(=O)N1CCCC2(C)CCCCC12)c1c[nH]c2cccc(F)c12", "note": "(stereo not shown) [Example 114, 3-(4-fluoro-1H-indol-3-yl)-1-(4a-methyloctahydroquinolin-1(2H)-yl)butan-1-one]", "values": [{"measurement": "IC50", "setting": "[1]", "value": "< 100", "unit": "nM"}]}
{"smiles": "CC(C)c1cccc2[nH]cc(C(C)CC(=O)N3CCCC4C(C(=O)O)CCCC43)c12", "note": "(stereo not shown) [Compound 211, 1-{3-[4-(propan-2-yl)-1H-indol-3-yl]butanoyl}decahydroquinoline-5-carboxylic acid]", "values": [{"measurement": "IC50", "setting": "[1]", "value": "< 100", "unit": "nM"}]}
{"smiles": "COCn1cc(C(C)CC(=O)N2CCCC3C(C(=O)O)CCCC32)c2c(C3CC3)cccc21", "note": "(stereo not shown) [Compound 242, 1-{3-[4-cyclopropyl-1-(methoxymethyl)-1H-indol-3-yl]butanoyl}decahydroquinoline-5-carboxylic acid]", "values": [{"measurement": "IC50", "setting": "[1]", "value": "> 250", "unit": "nM"}]}
{"smiles": "CC(CC(=O)N1CCCC2CC(C(=O)O)CCC21)c1c[nH]c2cccc(-c3ccco3)c12", "note": "(stereo not shown) [Compound 229, 1-{3-[4-(furan-2-yl)-1H-indol-3-yl]butanoyl}decahydroquinoline-6-carboxylic acid]", "values": [{"measurement": "IC50", "setting": "[1]", "value": "100 to 150", "unit": "nM"}]}
{"smiles": "O=C(CCc1c[nH]c2ccccc12)N1CC2CCCCC2C1", "note": "(stereo not shown) [Compound 42, 3-(1H-indol-3-yl)-1-(octahydro-2H-isoindol-2-yl)propan-1-one]", "values": [{"measurement": "IC50", "setting": "[1]", "value": "> 250", "unit": "nM"}]}
